How the values were obtained:
Trypanosoma cruzi = assay: Antitrypanosomal activity against Trypanosoma cruzi Y trypomastigotes infected in LLC-MK2-ATCC CCL7 cells assessed as reduction in parasite growth incubated for 24 hrs by Alamar blue dye based assay; assay type: functional, organism-based
[1] = Cytotoxicity in mouse NCTC-929 cells assessed as reduction in cell viability incubated for 48 hrs by MTT assay; assay type: cell-based; settings: NCTC-929 (L929) cells
[2] = Selectivity index, ratio of CC50 for cytotoxicity in mouse NCTC-929 cells to EC50 for Antitrypanosomal activity against Trypanosoma cruzi trypomastigotes infected in LLC-MK2-ATCC CCL7 cells; assay type: toxicity, cell-based; settings: read-out: Ratio CC50/EC50

SMILES | EC50 (Trypanosoma cruzi) | CC50 at 48 h [1] | selectivity ratio [2]
CN(C)c1ccc(/C=C/C(=O)c2cccc(N)c2)cc1 | > 100 µM | 101 µM | 
COc1ccc(C(=O)/C=C/c2ccc(N(C)C)cc2)cc1 | > 100 µM | > 200 µM | 
COc1cc(/C=C/C(=O)c2ccc(-c3ccccc3)cc2)cc(OC)c1OC | 3.3 µM | 29 µM | 8.9
O=C(/C=C/c1ccc2c(c1)OCO2)c1ccc(Cl)cc1 | 60 µM | > 200 µM | 
CN(C)c1ccc(/C=C/C(=O)c2ccccc2O)cc1 | > 100 µM | 50.4 µM | 
O=C(/C=C/c1ccc2c(c1)OCO2)c1ccccc1O | > 100 µM | 140 µM | 
COc1cc(CCC(=O)c2ccc(-c3ccccc3)cc2)cc(OC)c1OC | > 100 µM | > 200 µM | 
O=C(CCc1ccc2c(c1)OCO2)c1ccc(Cl)cc1 | > 100 µM | > 200 µM | 
CN(C)c1ccc(CCC(=O)c2cccc(O)c2)cc1 | > 100 µM | > 200 µM | 
C=CCOc1ccccc1C(=O)/C=C/c1ccc2c(c1)OCO2 | 18.9 µM | 82.3 µM | 4.3
O=C(/C=C/c1ccc2c(c1)OCO2)c1cccc(O)c1 | 26.5 µM | 24.5 µM | 1
CN(C)c1ccc(/C=C/C(=O)c2cccc(O)c2)cc1 | 28.6 µM | > 200 µM | > 7
COc1ccc(C(=O)/C=C/c2ccc3c(c2)OCO3)cc1 | > 100 µM | > 200 µM | 
COc1cc(/C=C/C(=O)c2ccccc2)cc(OC)c1OC | 18.4 µM | 27.3 µM | 1.5
Oc1ccccc1C(O)CCc1ccccc1 (racemic) | > 100 µM | > 200 µM | 
OC(CCc1ccc2c(c1)OCO2)c1ccc(Cl)cc1 (racemic) | > 100 µM | > 200 µM | 
COc1cc(CCC(O)c2ccc(-c3ccccc3)cc2)cc(OC)c1OC (racemic) | 28.3 µM | 95.6 µM | 3.4
CN(C)c1ccc(CCC(O)c2cccc(O)c2)cc1 (racemic) | > 100 µM | > 200 µM | 
O=C(Cn1ccnc1[N+](=O)[O-])NCc1ccccc1 [BENZNIDAZOLE] | 16.5 µM | > 200 µM | 

Now from value to compound, other results behind:

EC50 (Trypanosoma cruzi) | SMILES | CC50 at 48 h [1] | selectivity ratio [2]
> 100 µM | CN(C)c1ccc(/C=C/C(=O)c2ccc([N+](=O)[O-])cc2)cc1 | > 200 µM | 
> 100 µM | COc1ccc(C(=O)/C=C/c2ccc([N+](=O)[O-])cc2)cc1 | > 200 µM | 
> 100 µM | O=C(/C=C/c1ccccc1)c1ccc(-c2ccccc2)cc1 | > 200 µM | 
> 100 µM | CN(C)c1ccc(/C=C/C(=O)c2ccc(-c3ccccc3)cc2)cc1 | > 200 µM | 
> 100 µM | CN(C)c1ccc(/C=C/C(=O)c2ccc(Cl)cc2)cc1 | > 200 µM | 
60.9 µM | O=C(/C=C/c1ccc2c(c1)OCO2)c1ccccc1 | 100 µM | 1.6
26 µM | O=C(/C=C/c1ccccc1)c1cccc(O)c1 | 29.9 µM | 1.1
13.9 µM | O=C(/C=C/c1ccccc1)c1ccc([N+](=O)[O-])cc1 | 127 µM | 9.1
73.2 µM | CN(C)c1ccc(/C=C/C(=O)c2ccccc2)cc1 | 117 µM | 1.6
10.6 µM | C=CCOc1ccccc1C(=O)/C=C/c1ccccc1 | 77.6 µM | 7.3
> 100 µM | O=C(CCc1ccccc1)c1ccc([N+](=O)[O-])cc1 | > 200 µM | 
> 100 µM | O=C(/C=C/c1ccc2c(c1)OCO2)c1ccc([N+](=O)[O-])cc1 | > 200 µM | 
> 100 µM | COc1ccc(C(=O)/C=C/c2ccc(Cl)cc2)cc1 | 120 µM | 
> 100 µM | O=[N+]([O-])c1ccc(C(O)CCc2ccccc2)cc1 (racemic) | > 200 µM | 
28.8 µM | O=C(/C=C/c1ccccc1)c1ccccc1O [2'-HYDROXYCHALCONE] | 79.5 µM | 2.8
> 100 µM | COc1ccc(C(=O)/C=C/c2ccccc2)cc1 [4'-METHOXYCHALCONE] | 50.4 µM | 
26.9 µM | O=C(/C=C/c1ccccc1)c1ccccc1 [CHALCONE] | 89.3 µM | 3.3
